Ends that are not written are not given here.
Columns and labels:
diabetic db/db mice = assay: In-vivo study in mice of blood-glucose lowering effects of GLP-1 polymer conjugates; design: species or system mouse; conditions: for blood glucose-lowering effect: single subcutaneous dose (GLP-1 60, 120 μg; conjugates 420 μg), FIG. 14; for PD effect when compared to the 20 kiloDalton PEG conjugate: single subcutaneous dose 420 μg
Protocol: Male diabetic mice (BKS.Cg-+Lepr db/+Lepr db/01aHsd) were purchased from Harlan Laboratories, Ltd. (Jerusalem, Israel). The 8-9 week old animals (30-40 gm) were placed in mouse cages (two animals per cage), and allowed at least 48 hours of acclimatization before the start of the study.
Each compound was accurately weighed into a glass vial and dissolved in normal saline in order to prepare a concentration that would accommodate for the dose (based on GLP-1 equivalents) and the injection volume of 100 μL.
The study was divided into two phases: a feasibility phase and an evaluation phase.
In the feasibility phase, the feasibility of using diabetic db/db mice to test the effectiveness of GLP-1 was first evaluated. In carrying out the feasibility phase, several groups of mice were used wherein four mice were used in each group. Data on the baseline glucose levels were gathered for each mouse for 2-3 days prior to drug dosing. This was performed to identify any outliers in the group of animals. On the day of treatment (Day 0) each animal was weighed. A time 0 day blood sample (5 to 10 μL) was collected from the tail vein. The glucose level (mg/dL) was measured using a glucose analyzer. Each animal was then dosed subcutaneously (SC) below the skin on the back. […] The animals were then allowed to return into their cages. Blood samples of 5 to 10 μL (<0.5% of 2 mL blood volume for a 35 g mouse) were removed through a needle prick/capillary tube at the following time points: −3, −2, −1, 0, 0.04, 0.16, 0.33, 1.0, 1.16 days. Each collected blood sample was tested for its glucose level. At the end of the study, the animals were humanely euthanized by carbon-dioxide asphyxiation.
In the evaluation phase, the results from the feasibility phase were used to select the appropriate doses required to attain a sustained delivery of GLP-1 for a 3-5 day effect. In carrying out the evaluation phase, eight mice were used in each group. Data on the baseline glucose levels were gathered for each mouse three days prior to drug dosing. On the day of treatment (Day 0) each animal was weighed. A time 0 day blood sample (5 to 10 μL) was collected from the tail vein. The glucose level (mg/dL) was measured using a glucose analyzer. Each animal was then dosed subcutaneously (SC) below the skin on the back. […] The animals were then allowed to return into their cages. Blood samples of 5 to 10 μL (<0.5% of 2 mL blood volume for a 35 g mouse) were removed through a needle prick/capillary tube at the following time points: −3, −2, −1, 0, 0.04, 0.16, 0.33, 0.5, 1, 2, 3, 6 days. Each collected blood sample was tested for its glucose level. Food was withdrawn from the animals for the first four hours after dosing. At the end of the study, the animals were humanely euthanized by carbon-dioxide asphyxiation.

[1] = Cleavable nature of GLP-1 conjugate in aqueous media (50 mM Tris, pH 10, overnight at 50° C.), SDS-PAGE / reverse phase HPLC; type: physicochemical; conditions: 50 mM Tris solution
Protocol: The column was a 100 mm×2.1 mm ID Betasil C18 column with 5 μm particles, available from Thermo Electron Corp. Reverse phase HPLC used a mobile phase of 0.1% TFA in deionized water (solution C) and 0.1% TFA in acetonitrile (solution D) conducted at 37° C. The gradient used for reverse phase HPLC was as follows: for time 0.00 to 20.00 minutes, 35% of the mobile phase contained solution D; for time 20.00 to 21.00 minutes, 55% of the mobile phase contained solution D; for time 21.00 to 23.00 minutes, 80% of the mobile phase contained solution D; for time 23.00 to 24.00 minutes, 80% of the mobile phase contained solution D; for time 24.00 to 25.00 minutes, 35% of the mobile phase contained solution D; for time 25.00 and above, 35% of mobile phase contained solution D.

Substance	blood glucose-lowering effect (diabetic db/db mice)	PD effect when compared to the 20 kiloDalton PEG conjugate (diabetic db/db mice)	release of GLP-1 from the conjugate [1]	clearance from the mouse (from pharmacodynamic measurements) (diabetic db/db mice; subcutaneous)
G2PEG2Fmoc20K-Lys-GLP-1: G2PEG2Fmoc20k-NHS covalently and releasably attached to a lysine position of GLP-1 (HAEGTFTSDVSSYLEGQAAKEFIAWLVKGR; ends and bridges not checked; also: releasable G2PEG2Fmoc20K PEG on a lysine; UniProt P01275 98-127, looked up)	confirmed	–	–	–
G2PEG2Fmoc40K-Lys-GLP-1: G2PEG2Fmoc40k-NHS covalently and releasably attached to a lysine position of GLP-1 (HAEGTFTSDVSSYLEGQAAKEFIAWLVKGR; ends and bridges not checked; also: releasable G2PEG2Fmoc40K PEG on a lysine; UniProt P01275 98-127, looked up)	confirmed	small but extended PD effect	–	–
G2PEG2Fmoc40k-N^ter-GLP-1	–	small but extended PD effect	complete release	–
Glucagon-like Peptide I (7-36, “GLP-1”) [reference compound]	confirmed	–	–	cleared rapidly

Reference: patent publication US9381254B2, “Methods for preparing polymeric reagents” (Nektar Therapeutics, priority 2005, dated 2016)
